These results are taken from US20220319656A1, “AUTOMATED LITERATURE META ANALYSIS USING HYPOTHESIS GENERATORS AND AUTOMATED SEARCH” (TECHNION RESEARCH & DEVELOPMENT FOUNDATION, priority 2019, published 2022).

For data set [1] the following is noted: from a short literature review; cited from earlier work.
Another data set concerns MG63. The data set is described as follows: Cell viability assay (MTT), in vitro screen, MG63 cells. It counts as cell-based, Human. Particulars: 72 h. As to the method: Human osteosarcoma MG-63, U2OS cell lines were kind gift from David Meiri, and head and neck FaDu cell line were a kind gift of Moshe Elkabetz. These cells were incubated under standard conditions of 37° C., 5% CO2, and 95% humidity. MG-63 and U2OS cells were cultured in RPMI-1640 (Biological Industries) containing 10% fetal bovine serum, 2 mM L-Glutamine (Biological Industries) and 1% penicillin/streptomycin (Biological Industries).
5000 cells per well in 0.2 ml growth media were seeded in a 96-well plate and allowed to attach for 24 hours. After 24 hours the cells were exposed to logarithmic gradient of drugs (Gemcitabine, Sorafenib, Nilotinib, Carfilzomib, Nintedanib, Trametinib, Cabozantinib, Ponatinib, Infigratinib, Duvelisib).
Cell survival for the cell lines was assayed after 3 days from adding the drugs. For the U20S and MG-63 by adding […] (5 mg/ml) in DDW to each well. After 3 hours, the solution was removed and 200 μl of DMSO was added. For the Fadu cell line by adding 30 μl of MTT solution (5 mg/ml) in DDW to each well. After 1 hour, the solution was removed and 100 μl of DMSO was added to dissolve the formazan crystals. Cell viability was evaluated by measuring the absorbance of each well using a Synergy H1 (BioTek) plate reader at 570 nm relative to control wells.

The next data set relates to Fadu cells. The data set is classed as cell-based. Particulars: 72 h. As to the method:
FaDu cell line were cultured in DMEM (Biological Industries) containing 10% fetal bovine serum, 2 mM L-Glutamine (Biological Industries) and 1% penicillin/streptomycin (Biological Industries). 5000 cells per well in 0.2 ml growth media were seeded in a 96-well plate and allowed to attach for 24 hours. After 24 hours the cells were exposed to logarithmic gradient of drugs (Gemcitabine, Sorafenib, Nilotinib, Carfilzomib, Nintedanib, Trametinib, Cabozantinib, Ponatinib, Infigratinib, Duvelisib). Cell survival for the cell lines was assayed after 3 days from adding the drugs. For the U20S and MG-63 by adding […] (5 mg/ml) in DDW to each well. After 3 hours, the solution was removed and 200 μl of DMSO was added. For the Fadu cell line by adding 30 μl of MTT solution (5 mg/ml) in DDW to each well. After 1 hour, the solution was removed and 100 μl of DMSO was added to dissolve the formazan crystals. Cell viability was evaluated by measuring the absorbance of each well using a Synergy H1 (BioTek) plate reader at 570 nm relative to control wells.

As to `C=CC(=O)Nc1cc(Nc2nccc(-c3cn(C)c4ccccc34)n2)c(OC)cc1N(C)CCN(C)C` [osimertinib], the “effectiveness versus chemotherapy combination of pemetrexed and cisplatin” value in data set [1] is “more effective”.
For the molecule `CC(C)C[C@H](NC(=O)[C@H](CCc1ccccc1)NC(=O)CN1CCOCC1)C(=O)N[C@@H](Cc1ccccc1)C(=O)N[C@@H](CC(C)C)C(=O)[C@@]1(C)CO1` [carfilzomib], in the data set on MG63, the “potency / growth inhibition in the in-vitro screen” value is given as “most potent compound”; the “sensitivity of cells to free drug and nanoparticle formulation” value is recorded as “extremely sensitive”. Further, the cytotoxicity entry with MG63 (low nanomolar concentrations) is recorded as “more than 95%”. Further, in the data set on Fadu cells (Fadu cells, MTT), the “potency in the in-vitro screen” value was “most potent molecule”; the “sensitivity of cells to free drug and nanoparticle formulation” value is on record as “less sensitive”. The cytotoxicity in the data set on Fadu cells (human) is 64%.
